Experiments:
[1] = target: T1, cSrc (Gallus gallus, UniProt P00523, C277S/C483S/C496S/L407C); experiment: acrylodan-labeled cSrc fluorescence binding assay; parameters: species or system chicken; settings: any concentration
T1 construct: The chicken cSrc gene (residues 251-533); His tag with PreScission site (N, cleaved yes); made in house; host or cells: E. coli BL21(DE3) Codon+RIL
Method: Acrylodan-labeled cSrc (50 nM) was placed into cuvettes with a rapidly stirring mini stir bar while monitoring acrylodan fluorescence (left panel).
Crystal structures of chicken cSrc (kinase domain) in the DFG-in and DFG-out conformations were closely examined to identify a suitable fluorophore attachment site near the N-terminal end of the activation loop of cSrc which would report the binding of allosteric inhibitors by sensing changes in the activation loop conformation. Care was taken to not choose residues that were known phosphorylation sites or other sites that appeared to be critical to maintaining protein stability. A Cys was introduced into the chosen position (L407C) by site-directed mutagenesis while non-specific labeling was minimized by conservatively mutating other solvent exposed Cys into Ser (C277S, C483S, C496S).
Pure cSrc kinase containing the labeling site Cys mutation (L407C) and acrylodan (dissolved in DMF) were combined in buffer (pH 7.0) at a ratio of 1:1.5 protein:fluorophore and allowed to react in the dark overnight at 4° C. […] The labeled cSrc was then aliquoted, kept dark and frozen at −20° C.
Screening initiatives were carried out for acrylodan-labeled cSrc in 384-well plates. Stocks of candidate compounds were prepared in DMSO at 20× the final desired concentration. […]

[2] = target: T2, p38α (Homo sapiens, UniProt Q16539, A172C/C119S/C162S/F327L); experiment: acrylodan-labeled p38α (ac-p38α) fluorescence binding assay, endpoint Kd measurements; settings: for Kd: pyrazolourea derivatives of BIRB-796, 50 nM ac-p38α, cuvettes
T2 construct: His-tag with PreScission site (N, cleaved yes); GST (N); made in house; host or cells: E. coli BL21(DE3)

[3] = target: T2, p38α; experiment: ac-p38α real-time fluorescence measurements of binding and dissociation kinetics; settings: for t1/2 of dissociation: t1/2 = ln 2/kobs; for real-time fluorescence response upon addition to ac-p38α: cuvette method, acrylodan emission at 468 nm
Method: The conditions for such measurements are currently being further optimized (buffer, temperature, protein and inhibitor concentrations, length of incubation).
The addition of excess kinase causes the inhibitor to redistribute, resulting in a net dissociation of inhibitor from ac-p38α and a fluorescence increase which was fit to a first-order function.
After measuring koff for allosteric compounds, Applicants established conditions for measuring the kon of the same compounds. This was accomplished using the cuvette method by adding various concentrations of inhibitor to ac-p38α and fitting the fluorescence decay to a first-order function.

[4] = system: DU145 cells; experiment: immunoblot analysis of pSrc and pFAK in DU145 cells; format: cell-based; settings: 5 hr treatment; 11c 1, 2, 5, 10 μM, dasatinib 100 nM
Method: (§1) PC3 and DU145 were generously provided by Dr. Roman Thomas (Max Planck Institute for Neurological Research, Cologne). The cells were cultured in Dulbecco's modified Eagle's medium (DMEM) supplemented with 10% heat-inactivated fetal bovine serum (FBS) and 100 units/mL penicillin/streptomycin. Cells were cultured at 37° C. in humidified air containing 5% CO2. After inhibitor treatment (5 h), the cells were washed twice in cold phosphate-buffered saline (PBS) and then lysed for 10 min on ice in lysis buffer (20 mM Tris-HCl pH 7.5, 150 mM NaCl, 1% Triton, 1 mM Na2EDTA, 1 mM EGTA, 2.5 mM sodium pyrophosphate, 1 mM β-glycerophosphate, 1 mM Na3VO4, 1 μg/mL leupeptin, 1 mM PMSF, and common protease inhibitors). Subsequently, cells were centrifuged for 20 min at 20000×g and 4° C. The supernatant was subjected to immunoblot analysis.
(§2) Protein concentration was measured using a spectrophotometer (ND-1000, peQLab). Equal amounts of protein were separated by SDS-PAGE and transferred to nitrocellulose membranes. […] After washing, blots were incubated with secondary antibodies and then detected on film using the enhanced chemiluminescence (ECL) detection system.
(§3) Applicants monitored the phosphorylation state of Y416—an autophosphorylation site in the activation loop of cSrc—and Y576/Y577—two residues in the activation loop of focal adhesion kinase (FAK). […]

[5] = system: PC3 cells; experiment: immunoblot analysis of pSrc and pFAK in PC3 cells; format: cell-based; settings: 5 hr treatment; 11c 1, 2, 5, 10 μM, dasatinib 100 nM
Method: as §1, §2, §3

[6] = system: PC3 cells; experiment: cell-to-cell contacts by light microscopy, PC3 cells; format: cell-based; settings: 24 hours treatment; 11c 10 μM, dasatinib 100 nM
Source text: (§4) Reduction of cell-to-cell-contacts and cell proliferation in PC3 and DU145 cells by (11c, RL46). […] Total expression of FAK was unchanged while cSrc expression was increased in both cell lines. (b). Cell-to-cell contacts visualized by light microscopy at 10× magnification.

[7] = system: DU145 cells; experiment: cell-to-cell contacts by light microscopy, DU145 cells; format: cell-based; settings: 24 hours treatment; 11c 10 μM, dasatinib 100 nM
Source text: as §4

[8] = target: T2, p38α; experiment: HTS screen with acrylodan-labeled p38α, 384-well secondary screen for Kd; format: binding; settings: compounds HTS 1-15
Method: The complete screen was carried out by first using the labeled kinase binding assay in a 384-well HTS format to initially screen for possible ligands for the DFG-out conformation, or DFG-out binders. This was accomplished by first performing a primary screen at a single concentration of each ligand, followed by a secondary screen over a range of concentrations to directly determine the Kd of each potential hit.
The methods for the setup and execution of the screen are provided below. […] Large volumes of the same buffer were also use to prepare solutions for pipetting background (no labeled kinase added) and screening plates (+100 nM acrylodan-labeled p38α).
An industrial pipetting robot was used to first dispense […] of pre-diluted compounds into a set of two 384-well small volume assay plates. Subsequently, 15 μl of buffer was added to the background plate while the same volume of buffer containing the labeled kinase was added to the screening plate to detect DFG-out binders. […] A Tecan Safire^2 instrument was used to measure the fluorescence read-out in the 384-well plate format.
A secondary screen was carried out also in 384-well plates using a range of concentrations (100 nM to 50 μM) of each ligand in order to generate binding curves or identify false hits which were picked up due to high degrees of fluorescence interference. […] As before, large volumes of the same buffer were also used to prepare solutions for pipetting background (no labeled kinase added) and screening plates (+100 nM acrylodan-labeled p38α). The pipetting robot was used to first dispense 3.5 μl of pre-diluted compounds into a set of two 384-well small volume assay plates. Each plate contained no more than 7 different compounds identified in the primary screen, each screened at 10 concentrations (100 nM to 50 μM) and 4 wells per concentration. Subsequently, 3.5 μl of buffer was added to the background plate while the same volume of buffer containing the labeled kinase was added to the screening plate. Plates were sealed, incubated and measured as described for the primary screen. […] An exemplary sample plate layout is shown below.
Where indicated, binding curves were also plotted as % p38α bound by the ligand. The % p38α bound is calculated as follows: […]

[9] = target: p38α (Homo sapiens, UniProt Q16539); experiment: HTRF kinase assay (CisBio), activity-based, p38α; format: biochemical; settings: compounds HTS 1-15
p38α (Homo sapiens, UniProt Q16539), sequence (Q16539 whole entry): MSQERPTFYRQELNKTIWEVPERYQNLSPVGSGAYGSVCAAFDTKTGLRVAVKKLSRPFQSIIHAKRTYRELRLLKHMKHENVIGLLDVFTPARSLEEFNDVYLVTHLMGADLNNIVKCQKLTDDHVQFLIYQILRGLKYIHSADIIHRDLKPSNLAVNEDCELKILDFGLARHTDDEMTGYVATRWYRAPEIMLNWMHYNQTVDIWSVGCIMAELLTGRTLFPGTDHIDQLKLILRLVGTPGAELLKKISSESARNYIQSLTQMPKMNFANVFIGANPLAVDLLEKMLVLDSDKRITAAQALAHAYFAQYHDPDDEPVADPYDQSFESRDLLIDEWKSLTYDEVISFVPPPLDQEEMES

T2 sequence (Q16539 whole entry C119S/C162S/A172C/F327L): as the sequence (Q16539 whole entry) above, with C119S, C162S, A172C, F327L counted along it

CC(C)(C)c1cc(NC(=O)Nc2ccc(Cl)cc2)n(-c2ccc(C(F)(F)F)cc2Cl)n1 [7, RL19]
fluorescence ratio response [1]: did not respond | fluorescence response of ac-p38α ([2]; endpoint measurements): complete lack of fluorescence response | Kd [2]: No Binding

Cc1ccccc1-n1nc(C(C)(C)C)cc1NC(=O)Nc1ccc(Cl)cc1 [12D, RL15]
Kd ([2]; read-out: Kd): 0.347 µM

Cc1cccc(-n2nc(C(C)(C)C)cc2NC(=O)Nc2ccc(Cl)cc2)c1 [12a, RL29]
t1/2 of dissociation [3]: 52.3 min

Cc1ccc(-n2nc(C(C)(C)C)cc2NC(=O)Nc2ccc(Cl)cc2)cc1Cl [12b, RL18]
Kd ([2]; read-out: Kd): 0.018 µM

Cc1ccc(-n2nc(C(C)(C)C)cc2NC(=O)Nc2ccc(Cl)cc2)cc1 [12c, RL17]
Kd ([2]; read-out: Kd): 0.034 µM

Cc1ccc(-n2nc(C(C)(C)C)cc2NC(=O)Nc2cccc3ccccc23)cc1 [14a, RL36]
Kd ([2]; read-out: Kd): 0.011 µM

Cc1ccc(-n2nc(C(C)(C)C)cc2NC(=O)Nc2ccc(OCCN3CCOCC3)cc2)cc1 [15, RL39]
t1/2 of dissociation [3]: 11.2 min

Cc1nc(Nc2ncc(C(=O)Nc3c(C)cccc3Cl)s2)cc(N2CCN(CCO)CC2)n1 [Dasatinib]
real-time fluorescence response upon addition to ac-p38α [3]: instantaneous fluorescence response | pSrc and pFAK levels [4]: markedly reduced | pSrc and pFAK levels [5]: markedly reduced | cell-to-cell contacts and intact cells [6]: markedly reduced cell-to-cell-contacts and fewer intact cells | cell-to-cell contacts and intact cells [7]: markedly reduced cell-to-cell-contacts and fewer intact cells

COC(=O)C1=CO[C@@H](C)[C@H]2CN3CCc4c([nH]c5cc(OC)ccc45)[C@H]3C[C@@H]12 [HTS 3]
Kd [8]: 2.2 ± 0.11 µM | IC50 [9]: 18.3 ± 7.2 µM

Fc1cccc(COc2ccc(Nc3ncnc4ccccc34)cc2Cl)c1 [HTS 4]
Kd [8]: 10.3 ± 2.2 µM | IC50 [9]: > 50 µM

O=C(CN1C(=O)c2cccc3cccc1c23)Nc1cccc(C(F)(F)F)c1 [HTS 5]
Kd [8]: 3.1 ± 0.91 µM | IC50 [9]: > 50 µM

NS(=O)(=O)c1ccc(CCNc2nc3c(-c4cccc(C(F)(F)F)c4)nnn3c3ccccc23)cc1 [HTS 6]
Kd [8]: 0.301 ± 0.059 µM | IC50 [9]: > 50 µM

CC(=O)Nc1ccc(C(=O)Nc2ccc(-c3nc4cc(NC(=O)c5ccc(NC(C)=O)cc5)ccc4[nH]3)cc2)cc1 [HTS 7]
Kd [8]: 6.18 ± 2.31 µM | IC50 [9]: 15.3 ± 2.8 µM

CCOC(=O)c1c(C)c(C(=O)N2CCN(Cc3ccccc3)CC2)c(C)n1CC [HTS 8]
IC50 [9]: 2.6 ± 0.9 µM

CCc1ccc(NCc2cc3cc(OC)c(OC)cc3n(CC(=O)Nc3cc(C)ccc3C)c2=O)cc1 [HTS 9]
Kd [8]: 24.9 ± 4.9 µM | IC50 [9]: 25.6 ± 4.7 µM

Cc1ccc(NCc2cc3cc4c(cc3n(CC(=O)Nc3ccccc3F)c2=O)OCCO4)cc1 [HTS 10]
Kd [8]: 29.4 ± 4 µM | IC50 [9]: 31.3 ± 17.2 µM

O=C(c1ccc(CSc2nc3ccncc3[nH]2)cc1)N1CCC(Cc2ccccc2)CC1 [HTS 11]
Kd [8]: 2.3 ± 0.57 µM | IC50 [9]: 2.6 ± 0.92 µM

Cc1ccc(C(=O)NCCC23CC4CC(CC(C4)C2)C3)cc1NC1=NC2CS(=O)(=O)CC2S1 (stereo not drawn) [HTS 12]
t1/2 of binding ([3]; HTS hit, real-time kinetic measurement): ~0.633 min | Kd [8]: 1.3 ± 0.08 µM | IC50 [9]: 11 ± 1.5 µM

O=C(CSc1cn(CCNC(=O)c2cccc(C(F)(F)F)c2)c2ccccc12)Nc1ccc2c(c1)OCCO2 [HTS 13]
IC50 [9]: 1.1 ± 0.4 µM

Clc1cccc(-c2nc3cnccn3c2NC2CCCCC2)c1 [HTS 14]
Kd [8]: 100 ± 5.8 µM

Brc1cccc(-c2nc3cnccn3c2NC2CCCC2)c1 [HTS 15]
Kd [8]: 27.5 ± 5.3 µM

Fc1ccc(-c2nc3n(c2-c2ccncc2)CCS3)cc1 [SKF86002, reference compound]
real-time fluorescence response upon addition to ac-p38α [3]: instantaneous response

CNC(=O)c1cc(Oc2ccc(NC(=O)Nc3ccc(Cl)c(C(F)(F)F)c3)cc2)ccn1 [sorafenib, reference compound]
t1/2 of dissociation [3]: 2.4 min
